{"source": "paper PMC8198181", "about": "“Evaluation of Substituted N-Phenylpiperazine Analogs as D3 vs. D2 Dopamine Receptor Subtype Selective Ligands” (Molecules, 2021)", "key": {"[1]": {"system": "unilateral 6-hydroxydopamine lesioned (hemiparkinsonian) rats", "test": "L-dopa-dependent abnormal involuntary movement (AIM) inhibition in hemiparkinsonian rats", "assay_type": "in vivo, rat", "settings": "unilaterally lesioned male rats, 10 mg/kg, L-dopa and benserazide 8 mg/kg each", "description": "First, we have previously published that D3 receptor selective compounds could attenuate a hallucinogen-dependent head twitch response (HTR) in male DBA/2J mice. […] Second, we previously reported that D3 vs. D2 dopamine receptor subtype selective ligands could attenuate L-dopa dependent abnormal involuntary movement (AIM) scores in unilaterally lesioned (hemiparkinsonian) male rats, which is a model for L-dopa-Induced Dyskinesia (LID). […]\nAIMs ratings were performed as previously described. The severity of the AIMs was quantified using lesioned rats that were observed individually in their home cages at 15 min intervals, starting 15 min after the injection of L-dopa for approximately 2 h. The AIMs were scored in four categories: (1) axial AIMs, including dystonic or choreiform torsion of the trunk and neck towards the side contralateral to the lesion; (2) limb AIMs, including jerky and/or dystonic movements of the forelimb contralateral to the lesion; (3) orolingual AIMs, including twitching of orofacial muscles with empty masticatory movements and protrusion of the tongue towards the side contralateral to the lesion and (4) locomotive AIMs, including increased locomotion with contralateral side bias. […]\nThe effect of Group was assessed using two-way analysis of variance (ANOVA) with time as the repeated measure. […]"}, "[2]": {"system": "DBA/2J mice", "test": "DOI-dependent head twitch response inhibition", "assay_type": "in vivo, mouse", "settings": "male DBA/2J mice, 10 mg/kg i.p., DOI 5 mg/kg, 30 min", "source_text": "First, we have previously published that D3 receptor selective compounds could attenuate a hallucinogen-dependent head twitch response (HTR) in male DBA/2J mice. […] Second, we previously reported that D3 vs. D2 dopamine receptor subtype selective ligands could attenuate L-dopa dependent abnormal involuntary movement (AIM) scores in unilaterally lesioned (hemiparkinsonian) male rats, which is a model for L-dopa-Induced Dyskinesia (LID).\nUpon arrival DBA/2J mice (Jackson Labs) were allowed to acclimate for at least one week prior to testing. Mice were housed at ≤4 animals per cage with unlimited access to food and fresh water. The protocol for the HTR assessment has been previously reported. […]\nHowever, a head twitch was defined as a rapid movement of the head, without the involvement of the front paws during grooming. […] At least two observers counted the number of head twitches by visual examination and the number of head twitches was recorded in 5-min cumulative intervals. […]\nThe effect of Group was assessed using two-way analysis of variance (ANOVA) with Time as the repeated measure. The data was further analyzed at each time point with a one-way ANOVA with Group as the factor followed by planned individual comparisons between different groups using a single degree-of-freedom F test involving the error term from the overall ANOVA when the Time and Group interaction was significant. […]"}, "[3]": {"target": "D3 dopamine receptor (Homo sapiens, UniProt P35462)", "sequence (P35462 whole entry)": "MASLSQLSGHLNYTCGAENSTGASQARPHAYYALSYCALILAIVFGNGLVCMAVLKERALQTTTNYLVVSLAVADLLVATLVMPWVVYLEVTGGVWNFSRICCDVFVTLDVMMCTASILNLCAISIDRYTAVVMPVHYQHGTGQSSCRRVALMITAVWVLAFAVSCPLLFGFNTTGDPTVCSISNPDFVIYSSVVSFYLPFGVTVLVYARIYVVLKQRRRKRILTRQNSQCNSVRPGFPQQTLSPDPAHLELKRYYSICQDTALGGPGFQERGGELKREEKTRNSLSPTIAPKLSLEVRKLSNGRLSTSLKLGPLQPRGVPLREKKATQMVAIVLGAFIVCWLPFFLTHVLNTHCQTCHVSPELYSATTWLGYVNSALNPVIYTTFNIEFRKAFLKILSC", "experimental": "Competitive radioligand binding techniques were used to determine the Ki values of ligands at human D2 and D3 dopamine receptors expressed in stably transfected HEK cells (Table 1).\nThe final radioligand concentration was approximately equal to the Kd value for the binding of the radioligand. […] For each competition curve, triplicates were performed using two concentrations of inhibitor per decade over five orders of magnitude.\nThe competition curves were modeled for a single binding site using Bs = Bo − ((Bo + L)/(IC50 + L)) where Bs is the amount of ligand bound to receptor and Bo is the amount of ligand bound to receptor in the absence of competitive inhibitor. L is the concentration of the competitive inhibitor. […] The values for Bs and Bo were constrained using experimentally derived values. The IC50 values were converted to equilibrium dissociation constants (Ki) [50, 51]. Mean Ki values ± S.E.M. are reported for at least three independent experiments."}}}
{"compound": "O=C(NCCCCN1CCN(c2ccccc2F)CC1)c1ccc(-c2ccsc2)cc1", "note": "[Compound 6a]", "values": [{"measurement": "L-dopa dependent AIM scores", "setting": "[1]", "value": "attenuate the AIM scores"}, {"measurement": "DOI-dependent head twitch response", "setting": "[2]", "value": "attenuated the number of head twitches"}, {"measurement": "Ki", "setting": "[3]", "value": "1.4 ± 0.2", "unit": "nM"}, {"measurement": "D2:D3 Selectivity", "setting": "[3]; ratio of D2 and D3 Ki values (Table 1)", "value": 467}]}
